Test results published in patent US20080199438A1, “Methods For Suppressing Tumor Proliferation” (DNAVEC RESEARCH INC., priority 2004, published 2008).

Assays:
Type in all cases: cell-based, human
[1] = tested on: MRC5 cells; assay: FGF-2-mediated secretion of VEGF and HGF with signal transduction inhibitors or neutralizing antibody, ELISA; details: MRC5, 10 ng/ml FGF-2, 72 hours; rapamycin 100 ng/ml, U0126 10 μmol/L, Ras-inhibitory peptide 50 μmol/L
Description: (A) Effect of various inhibitors of intracellular signal transduction pathways upon the secretion of VEGF and HGF in MRC5 cells. After 48 hours of preincubation in the presence of 1% FBS, cells were stimulated with 10 ng/ml of human recombinant FGF-2 in the presence or absence of various inhibitors. After 72 hours, the medium was subjected to ELISA. n=3 in each group. *P<0.01.
(C) Increases in FGF-2-mediated VEGF secretion completely depend on PDGFRα. After 48 hours of preincubation in the presence of 1% FBS, MRC5 cells were stimulated with 10 ng/ml of recombinant human FGF-2 in the presence or absence of an anti-PDGFRα neutralizing antibody. After 72 hours, the medium was subjected to ELISA. Similar results were obtained for the expression of HGF (data not shown). *P<0.01.
HSMC (J. Cell Biol., 50: 172-86 (1971)), MRC-5 (ATCC CCL-171), SAS (J. Biol. Chem., 270 (41): 24321-69 (1995)), MH134 (J. Natl. Cancer Inst., 17: 1-21 (1956)), QG56 (Int. J. Cancer, 35 (6): 808-12 (1985)), TF (Cancer, 69 (10): 2589-97 (1992)), KN (Cancer, 69 (10): 2589-97 (1992)), EBC-1 (Am. J. Pathol., 142 (2): 425-31 (1993)), PC9 (Int. J. Cancer, 15 (4): 449-55 (1985)), and COS7 Cells (ATCC CRL-1651) were purchased from American Type Culture Collection (ATCC). As mentioned previously, the intracellular signal inhibitors below were each used at the following concentrations for HSMC and MRC5 cells (Onimaru M et al., Circ Res. 91: 723-730 (2002)): Ras, Ras-inhibitory peptide (50 μmol/L, Alexis Japan, Tokyo, Japan); p70S6K, p70S6K inhibitor rapamycin (100 ng/ml, Sigma-Aldrich Japan, Tokyo, Japan); PKC, PKC inhibitor bisindolylmaleimide (100 nmol/L, Sigma); PI3K, PI3K-inhibitor wortmannin (120 nmol/L, Sigma); MEK inhibitor U0126 (10 μmol/L, Promega K.K., Tokyo, Japan); PKA, PKA-inhibitory peptide (1 μmol/L, Calbiochem, San Diego, Calif.); and […], NF-κB inhibitor ALLN (5 μmol/L, Roche Diagnostics, Tokyo, Japan).
(§1) As mentioned previously (Masaki I et al., Circ Res. 90: 966-973 (2002); Onimaru M et al., Circ Res. 91: 723-730 (2002)), the protein contents of the mouse limb muscle, tumor, and culture medium were determined using Quantikine Immunoassay systems for mice (both the 164 and 220 amino acid residue forms are recognized) and human VEGF-A, human FGF-2 (available to both human and mouse), human HGF (R&D Systems Inc., Minneapolis, Minn.), and rat HGF (available to mouse HGF; Institute of Immunology Inc., Tokyo, Japan), according to the manufacturer's instructions.

[2] = tested on: HSMC; assay: Northern blot of receptor mRNA after growth factor stimulation
Description: (§2) (B) A time course of FGF-2-mediated expression of PDGFRα mRNA in MRC5 cells and HSMCs was analyzed by Northern blotting. After 48 hours of preincubation under serum-free conditions, each of the cell lines was stimulated with FGF-2. Cells were harvested at the time indicated in the figure and then subjected to Northern blot analysis. Bands were visualized and subjected to densitometric analysis using a photoimager. The experience was carried out in duplicate and similar results were obtained.
(§3) Total cellular RNA, isolated using the ISOGEN system (Wako Pure Chemicals, Osaka, Japan), was electrophoresed and transferred onto a nylon membrane. The membranes were hybridized overnight at 60° C. with random-primed [α-^32P]dCTP-labeled probes. The bands were visualized and subjected to densitometry using a photoimager.
(§4) To assess the role of the PDGF-AA signal in the angiogenic response of host vasculature, the FGF-2-mediated induction of VEGF and HGF in human mesenchymal cells (MRC5 and HSMC) cultured under serum-free conditions was investigated. […] In clinical application such as ischemia treatments, angiogenesis might also be induced more effectively by administering both FGF-2 and PDGF-AA, rather than either one alone.

[3] = tested on: MRC5 cells; assay: as above
Description: as §2, §3, §4

[4] = tested on: MRC5 cells; assay: Northern blot time course of FGF-2-mediated VEGF mRNA expression; details: MRC5, 10 ng/ml FGF-2, Northern blot
Description: (B) A p70S6K inhibitor, Rapamycin (RAPA) stops the later phase of FGF-2-mediated VEGF mRNA expression in MRC5 cells. After 48 hours of preincubation in the presence of 1% FBS, cells were stimulated with 10 ng/ml of recombinant human FGF-2. Cells were harvested at the time indicated in the figure and then subjected to Northern blot analysis. The bands were visualized and subjected to densitometric analysis using a photoimager.
as §3

[5] = tested on: MRC5 cells; assay: VEGF secretion after stimulation with FGF-2 and/or PDGF-AA, ELISA of culture medium; details: MRC5, serum-free, 72 hours
Description: (§5) (A) Recombinant FGF-2 and PDGF-AA work together to increase VEGF secretion from fibroblasts (MRC5) and vascular smooth muscle cells (HSMCs). After 48 hours of preincubation in serum-free conditions, each of the cell lines was stimulated with FGF-2 and/or PDGF-AA. After 72 hours, the cultured medium was subjected to ELISA. n3 in each group. *P<0.01. #P<0.05
as §1, §4

[6] = tested on: HSMC; assay: as above; details: serum-free, 72 hours
Description: as §5, §1, §4

PDGFRα transcription [2]	Compound	FGF-2-mediated upregulation of HGF/SF protein [1]	FGF-2-mediated upregulation of VEGF protein [1]	PDGFRα transcription ([3]; MRC5, Northern blot)	time course of FGF-2-mediated VEGF expression [4]	release of VEGF into the culture medium [5]	FGFR1 expression ([3]; data not shown)	level of VEGF in the culture medium [6]
	N#CC(=C(/N)Sc1ccccc1N)/C(C#N)=C(\N)Sc1ccccc1N [MEK inhibitor, U0126, reference compound]	removed these effects	removed these effects					
upregulation	FGF-2: human recombinant fibroblast growth factor-2 used to stimulate cells	upregulated	upregulated	upregulation	biphasic (at three hours and after that) upregulation	stimulated release of VEGF		
	PDGF-AA: recombinant PDGF-A homodimer used to stimulate cells					did not	did not change	upregulated
